In ChEMBL document CHEMBL3763101, “Gibbilimbol analogues as antiparasitic agents--Synthesis and biological activity against Trypanosoma cruzi and Leishmania (L.) infantum” (Bioorg Med Chem Lett, 2016):

Experiments:
Leishmania infantum [1] = assay: Antiparasitic activity against amastigote stage of Leishmania infantum infected in BALB/c mouse peritoneal macrophages assessed as reduction of parasite burden after 120 hrs by Giemsa staining-based light microscopic analysis; type: functional, organism-based
[2] = Selectivity index, ratio of CC50 for mouse […] cells to IC50 for Trypanosoma cruzi Y trypomastigotes; type: functional
Leishmania infantum [3] = assay: Antiparasitic activity against promastigote stage of Leishmania infantum assessed as parasite viability after 24 hrs by MTT assay; type: functional, organism-based
Trypanosoma cruzi [4] = assay: Antiparasitic activity against amastigote stage of Trypanosoma cruzi Y; type: functional, organism-based
Trypanosoma cruzi [5] = assay: Antiparasitic activity against trypomastigote stage of Trypanosoma cruzi Y assessed as parasite viability after 24 hrs by MTT assay; type: functional, organism-based
[6] = Cytotoxicity against mouse NCTC-929 cells assessed as cell viability after 48 hrs by MTT assay; type: cell-based
[7] = Selectivity index, ratio of CC50 for mouse […] cells to IC50 for Leishmania infantum promastigotes; type: functional, NCTC-929
[8] = Selectivity index, ratio of CC50 for mouse […] cells to IC50 for Trypanosoma cruzi Y amastigotes; type: functional
[9] = Selectivity index, ratio of CC50 for mouse […] cells to IC50 for Leishmania infantum amastigotes; type: functional
Leishmania infantum [10] = assay: Potency index, ratio of gibbilimbol B IC50 to compound IC50 for amastigote stage of Leishmania infantum infected in BALB/c mouse peritoneal macrophages; type: functional
[11] = Leishmania infantum, 24 h, read-out: IC50
[12] = Trypanosoma cruzi, Y, 24 h, read-out: IC50
[13] = Trypanosoma cruzi, Y, read-out: IC50
[14] = Leishmania infantum, 120 h, read-out: IC50

CCCCCCCCOC(=O)c1ccc(O)cc1
IC50 (Leishmania infantum [1]): Not Active
Ratio CC50/IC50 [2]: 29
IC50 (Leishmania infantum [3]; [11]): 123 µM
IC50 (Trypanosoma cruzi [4]): Not Active
IC50 (Trypanosoma cruzi [5]; [12]): 4.5 µM
CC50 at 48 h [6]: 130 µM
Ratio CC50/IC50 [7]: 1.1

CCCCCCCC/N=C/c1ccc(O)cc1
IC50 (Leishmania infantum [1]): Not Active
IC50 (Leishmania infantum [3]; [11]): 19.9 µM
IC50 (Trypanosoma cruzi [4]): Not Active
IC50 (Trypanosoma cruzi [5]): Not Active
CC50 at 48 h [6]: 99.2 µM
Ratio CC50/IC50 [7]: 5

CCCCCCCC(O)/C=C/c1ccc(O)cc1 (centres undefined)
IC50 (Leishmania infantum [1]): Not Active
Ratio CC50/IC50 [2]: 8.1
IC50 (Leishmania infantum [3]; [11]): 125 µM
IC50 (Trypanosoma cruzi [4]): Not Active
IC50 (Trypanosoma cruzi [5]; [12]): 6.1 µM
CC50 at 48 h [6]: 49.5 µM
Ratio CC50/IC50 [7]: 0.4

CCCCCCCCNC(=O)c1ccc(O)cc1
IC50 (Leishmania infantum [1]): Not Active
Ratio CC50/IC50 [2]: 1.7
IC50 (Leishmania infantum [3]; [11]): 45.1 µM
IC50 (Trypanosoma cruzi [4]): Not Active
IC50 (Trypanosoma cruzi [5]; [12]): 26.5 µM
CC50 at 48 h [6]: 45.4 µM
Ratio CC50/IC50 [7]: 1

CCCCCCCC(=O)/C=C/c1ccc(O)cc1
Ratio CC50/IC50 [8]: 3.7
IC50 (Leishmania infantum [1]): Not Active
Ratio CC50/IC50 [2]: 7
IC50 (Leishmania infantum [3]; [11]): 82.7 µM
IC50 (Trypanosoma cruzi [4]; [13]): 22.5 µM
IC50 (Trypanosoma cruzi [5]; [12]): 11.8 µM
CC50 at 48 h [6]: 82.8 µM
Ratio CC50/IC50 [7]: 1

CCCCCCCCNCc1ccc(O)cc1
Ratio CC50/IC50 [8]: 4.3
IC50 (Leishmania infantum [1]; [14]): 1.8 µM
Ratio CC50/IC50 [2]: 1.4
Ratio CC50/IC50 [9]: 13.1
Ratio IC50 (Leishmania infantum [10]): 52
IC50 (Leishmania infantum [3]; [11]): 28.6 µM
IC50 (Trypanosoma cruzi [4]; [13]): 5.5 µM
IC50 (Trypanosoma cruzi [5]; [12]): 17 µM
CC50 at 48 h [6]: 23.5 µM
Ratio CC50/IC50 [7]: 0.8

CCCCNCc1ccc(O)cc1
IC50 (Leishmania infantum [1]): Not Active
IC50 (Leishmania infantum [3]; [11]): 31.6 µM
IC50 (Trypanosoma cruzi [4]): Not Active
IC50 (Trypanosoma cruzi [5]): Not Active
CC50 at 48 h [6]: > 300 µM
Ratio CC50/IC50 [7]: >9.5

O=C(Cn1ccnc1[N+](=O)[O-])NCc1ccccc1 [BENZNIDAZOLE]
IC50 (Trypanosoma cruzi [4]; [13]): 230 µM
CC50 at 48 h [6]: 270 µM

CCCCOC(=O)c1ccc(O)cc1 [BUTYLPARABEN]
Ratio CC50/IC50 [8]: 6.4
IC50 (Leishmania infantum [1]): Not Active
IC50 (Leishmania infantum [3]): Not Active
IC50 (Trypanosoma cruzi [4]; [13]): 26.4 µM
IC50 (Trypanosoma cruzi [5]): Not Active
CC50 at 48 h [6]: 168 µM

CCCCCCCCCCCCCCCCOP(=O)([O-])OCC[N+](C)(C)C [MILTEFOSINE]
IC50 (Leishmania infantum [1]; [14]): 16.4 µM
Ratio CC50/IC50 [9]: 14.7
IC50 (Leishmania infantum [3]; [11]): 16.7 µM
CC50 at 48 h [6]: 241 µM
Ratio CC50/IC50 [7]: 14.5
